Source: patent US4645769A, “1-oxa-1-dethia-cephalosporin compounds and antibacterial agent comprising the same” (Merck & Co., Inc., priority 1985, dated 1987)
Where a name gives a salt, the structure may show the parent alone.

Experiments:
Pseudomonas aeruginosa = assay: Antibacterial activity against Pseudomonas aeruginosa (from Table 1); format: cell-based; conditions: in words
[1] = tested on: Esherichia coli NIHJ JC-2; assay: Minimum Inhibitory Concentration (MIC), antibacterial spectrum in vitro; format: cell-based
[2] = tested on: Pseudomonas aeruginosa (GN 10362); assay: Efficacy in Mice Infected with Pseudomonas aeruginosa (GN 10362); format: in vivo; conditions: GN10362, sc, 168 h, Ps. aeruginosa (GN 10362) intraperitoneal infection, mice, single subcutaneous dose one hour after infection, 7 days, read-out: ED 50
Excerpt: (§1) A systemic infection was produced by intraperitoneal injection of the appropriate pathogen to mice (five male mice in each group, average body weight 20 g), and the mice were received single subcutaneous dose of the compound one hour after the infection.

[3] = tested on: Pseudomonas aeruginosa MB-3833; assay: Minimum Inhibitory Concentration (MIC), antibacterial spectrum in vitro; format: cell-based; conditions: MB3833; Pseudomonas aeruginosa MB-3833; read-out: Minimum Inhibitory Concentration (MIC)
[4] = tested on: Pseudomonas aeruginosa E-2; assay: as above; format: cell-based; conditions: E2; Pseudomonas aeruginosa E-2; read-out: Minimum Inhibitory Concentration (MIC)
Esherichia coli TEM DC-2 = assay: as above; format: cell-based; conditions: read-out: Minimum Inhibitory Concentration (MIC)
[5] = tested on: Streptococcus faecalis ATCC 8043; assay: as above; format: cell-based; conditions: Enterococcus faecalis, ATCC8043; Streptococcus faecalis ATCC 8043; read-out: Minimum Inhibitory Concentration (MIC)
Enterobacter cloacae P99 = assay: as above; format: cell-based; conditions: P99, read-out: Minimum Inhibitory Concentration (MIC)
[6] = tested on: Klebsiella pneumoniae PCI 602; assay: as above; format: cell-based; conditions: PCI602; Klebsiella pneumoniae PCI 602; read-out: Minimum Inhibitory Concentration (MIC)
Proteus morganii 1510 = assay: as above; format: cell-based; conditions: Morganella morganii; Proteus morganii 1510; read-out: Minimum Inhibitory Concentration (MIC)
[7] = tested on: Staphylococus aureus (Smith I); assay: Efficacy in Mice Infected with Staphylococus aureus (Smith I); format: in vivo; conditions: Staphylococcus aureus, sc, 168 h, St. aureus (Smith I) intraperitoneal infection, single subcutaneous dose one hour after infection, 7 days
Excerpt: as §1

[8] = tested on: Citrobacter freundii GN-346; assay: Minimum Inhibitory Concentration (MIC), antibacterial spectrum in vitro; format: cell-based; conditions: GN346; Citrobacter freundii GN-346; read-out: Minimum Inhibitory Concentration (MIC)
[9] = tested on: Staphylococcus aureus 209 P JC-1; assay: as above; format: cell-based; conditions: 209PJC1; Staphylococcus aureus 209 P JC-1; read-out: Minimum Inhibitory Concentration (MIC)
[10] = tested on: Pseudomonas aeruginosa RPL-11; assay: as above; format: cell-based; conditions: RPL11; Pseudomonas aeruginosa RPL-11; read-out: Minimum Inhibitory Concentration (MIC)
[11] = Concentration in Blood Serum after subcutaneous dosing (bioassay using Escherichia coli); format: in vivo; conditions: mouse, sc, 25 mg/Kg subcutaneously, mice
Method: The concentration of the compound in the serum was determined by bioassay using Escherichia coli as assay microorganism.

[12] = tested on: Salmonella typhimurium LT-2; assay: Minimum Inhibitory Concentration (MIC), antibacterial spectrum in vitro; format: cell-based; conditions: Salmonella enterica; Salmonella typhimurium LT-2; read-out: Minimum Inhibitory Concentration (MIC)

**Q.** With `C[n+]1ccc(SCC2=C(C(=O)[O-])N3C(=O)C(NC(=O)C(=NOC(C)(C)C(=O)O)c4csc(N)n4)C3OC2)cc1` [Compound 14, (6R,7R)-7-((Z)-2-(2-Aminothiazole-4-yl)-2-(2-carboxyprop-2-oxyimino)acetamide-3-(1-methylpyridinium-4-yl-thiomethyl)-1-oxa-1-dethiaceph-3-em-4-carboxylate (Sodium Salt)] as the compound, how does the “effectiveness against Pseudomonas aeruginosa” value (Pseudomonas aeruginosa) read?
**A.** effective against Pseudomonas aeruginosa

**Q.** What about the MIC [1] of the same compound?
**A.** 0.1 µg/mL

**Q.** What about the ED50 [2] of the same compound?
**A.** 0.13 mg/kg

**Q.** What about the MIC [3] of the same compound?
**A.** 1.56 µg/mL

**Q.** And the MIC [4]?
**A.** 1.56 µg/mL

**Q.** What about the MIC (Esherichia coli TEM DC-2) of the same compound?
**A.** 0.25 µg/mL

**Q.** And the MIC [5]?
**A.** > 100 µg/mL

**Q.** And the MIC (Enterobacter cloacae P99)?
**A.** 128 µg/mL

**Q.** What about the MIC [6] of the same compound?
**A.** 0.1 µg/mL

**Q.** And the MIC (Proteus morganii 1510)?
**A.** 3.13 µg/mL

**Q.** And the ED50 [7]?
**A.** 0.016 mg/kg

**Q.** What about the MIC [8] of the same compound?
**A.** 50 µg/mL

**Q.** And the MIC [9]?
**A.** 1.56 µg/mL

**Q.** What about the MIC [10] of the same compound?
**A.** 64 µg/mL

**Q.** What about the concentration at 0.5 h ([11]; 1/2 hour) of the same compound?
**A.** 8800 ng/mL

**Q.** What about the concentration at 0.25 h ([11]; 1/4 hour) of the same compound?
**A.** 11500 ng/mL

**Q.** What about the concentration at 5 min ([11]; 1/12 hour) of the same compound?
**A.** 18000 ng/mL

**Q.** What about the concentration at 1 h ([11]; 1 hour) of the same compound?
**A.** 5000 ng/mL

**Q.** And the MIC [12]?
**A.** < 0.025 µg/mL
